Results published in US8076116B2, “Nucleic acids encoding class II human histone deacetylases, and uses related thereto” (priority 2000, dated 2011).

Experiments:
[1] = test system: HDAC4; assay type: cell-based, human; conditions: TAg Jurkat cells treated 1.5 hours; for HDAC activity of the purified HDAC4 complex: immunoprecipitate
Description: (§1) In addition, an increase in the overall HDAC activity of the purified complex was observed (FIG. 9A).
HDAC4 (SEQ ID NO:2) also contains a nuclear localization sequence (Hicks and Raikhel, 1995). In order to determine if the interaction with 14-3-3 blocks binding of the importin heterodimer, recombinant FLAG-tagged HDAC4 (SEQ ID NO:2) was immunoprecipitated from untreated, staurosporine-, and calyculin A-treated TAg-Jurkat cells and analyzed for binding to importin □ by Western blotting.
(§2) Cells were harvested 48 hours post-transfection. When required, cells were treated with 200 µM staurosporin (Calbiochem) or 20 nM calyculin A (Calbiochem) for 1.5 hours prior to harvesting.

[2] = test system: HDAC5; assay type: cell-based, human; conditions: TAg Jurkat cells treated 1.5 hours; for HDAC5 association with HDAC3 / binding of HDAC5 to either 14-3-3 isoform: Western blot; for HDAC activity of the purified HDAC5 complex: immunoprecipitate
Procedure: as §1, §2

[3] = biological target: T1, HDAC1 (Homo sapiens, UniProt Q13547); experiment: in vitro HDAC assay, release of 3H-acetate from labeled histones by immunoprecipitated FLAG-tagged HDAC1; assay type: biochemical; conditions: 300 nM TSA, 10 minutes prior to addition of labeled histones
T1 construct: made in house; host or cells: Sf9 insect cells (baculovirus, pVL1392)
Procedure: (§3) C. In Vitro Histone Deacetylase Activity of Class II HDACs.
(§4) FLAG-tagged HDAC1 and HDAC6 were expressed in TAg Jurkat cells and purified by immunoprecipitation using the anti-FLAG antibody. […] The proteins were used in in vitro HDAC assays with the compounds identified in the screen, using concentration of approximately 50 μM.
(§5) E. Histone isolation and substrate specificity determination. […] F. HDAC6 Mutagenesis. […] G. Cell culture and transfections. […] Cells were harvested 48 hours post-transfection. H. DNA Constructs

[4] = biological target: T2, HDAC6 (Homo sapiens, UniProt Q9UBN7); experiment: in vitro HDAC assay, release of 3H-acetate from labeled histones by immunoprecipitated FLAG-tagged HDAC6; assay type: biochemical; conditions: 300 nM TSA, 10 minutes prior to addition of labeled histones
T2 construct: made in house; host or cells: Sf9 insect cells (baculovirus, pVL1392, Baculogold)
T2 sequence (Q9UBN7 1-1215 T994I): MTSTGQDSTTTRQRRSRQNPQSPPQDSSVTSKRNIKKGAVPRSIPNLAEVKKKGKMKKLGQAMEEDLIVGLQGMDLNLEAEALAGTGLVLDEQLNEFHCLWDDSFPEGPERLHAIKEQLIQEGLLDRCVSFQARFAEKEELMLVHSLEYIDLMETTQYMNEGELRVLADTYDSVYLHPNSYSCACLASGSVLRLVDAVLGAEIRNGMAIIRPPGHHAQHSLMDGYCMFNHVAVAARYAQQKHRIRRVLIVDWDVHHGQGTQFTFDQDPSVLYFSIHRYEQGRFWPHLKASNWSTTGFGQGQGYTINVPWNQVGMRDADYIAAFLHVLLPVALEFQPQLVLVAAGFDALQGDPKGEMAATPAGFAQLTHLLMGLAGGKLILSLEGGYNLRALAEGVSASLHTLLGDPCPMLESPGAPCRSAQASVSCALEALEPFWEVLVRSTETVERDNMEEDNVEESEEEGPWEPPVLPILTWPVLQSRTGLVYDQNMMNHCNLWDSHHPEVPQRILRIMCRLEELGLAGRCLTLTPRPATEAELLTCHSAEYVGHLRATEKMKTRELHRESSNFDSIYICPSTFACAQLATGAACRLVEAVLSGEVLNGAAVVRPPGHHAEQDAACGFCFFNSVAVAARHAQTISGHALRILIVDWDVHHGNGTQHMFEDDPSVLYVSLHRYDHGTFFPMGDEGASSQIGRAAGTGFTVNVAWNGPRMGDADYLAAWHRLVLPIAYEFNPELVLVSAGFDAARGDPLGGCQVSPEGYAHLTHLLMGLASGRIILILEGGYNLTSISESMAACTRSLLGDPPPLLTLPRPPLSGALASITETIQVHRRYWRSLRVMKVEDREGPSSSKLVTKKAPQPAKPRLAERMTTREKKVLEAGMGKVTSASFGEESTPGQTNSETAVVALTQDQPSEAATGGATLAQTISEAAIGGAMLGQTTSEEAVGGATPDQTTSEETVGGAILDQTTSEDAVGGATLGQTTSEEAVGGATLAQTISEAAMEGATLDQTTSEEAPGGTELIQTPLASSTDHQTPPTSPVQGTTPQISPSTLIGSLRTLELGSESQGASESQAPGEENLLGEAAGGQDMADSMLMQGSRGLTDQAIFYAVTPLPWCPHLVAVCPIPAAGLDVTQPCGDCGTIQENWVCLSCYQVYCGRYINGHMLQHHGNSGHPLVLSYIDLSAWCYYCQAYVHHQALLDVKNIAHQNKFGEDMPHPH
Procedure: as §3, §4, §5

[5] = biological target: HDAC4 (Homo sapiens, UniProt P56524); conditions: 300 nM TSA, 10 minutes prior to addition of labeled histones
Description: (§6) The NCBI database was screened with the yeast Hda1p amino acid sequence to identify human homologs. The complete ORFs of HDAC 4 (SEQ ID NO:2), 5 (SEQ ID NO:4), and 6 (SEQ ID NO:6) were constructed as described in Methods. […] The two catalytic regions in HDAC6 (SEQ ID NO:6) are highly homologous to each other (47% identity, 64% similarity) and therefore the protein may have arisen evolutionarily from an in frame gene duplication event. […] C. In Vitro Histone Deacetylase Activity of Class II HDACs.

[6] = biological target: HDAC5 (Homo sapiens, UniProt Q9UQL6); conditions: 300 nM TSA, 10 minutes prior to addition of labeled histones
Description: as §6

Chain of HDAC4 (Homo sapiens, UniProt P56524) (P56524 whole entry A373T): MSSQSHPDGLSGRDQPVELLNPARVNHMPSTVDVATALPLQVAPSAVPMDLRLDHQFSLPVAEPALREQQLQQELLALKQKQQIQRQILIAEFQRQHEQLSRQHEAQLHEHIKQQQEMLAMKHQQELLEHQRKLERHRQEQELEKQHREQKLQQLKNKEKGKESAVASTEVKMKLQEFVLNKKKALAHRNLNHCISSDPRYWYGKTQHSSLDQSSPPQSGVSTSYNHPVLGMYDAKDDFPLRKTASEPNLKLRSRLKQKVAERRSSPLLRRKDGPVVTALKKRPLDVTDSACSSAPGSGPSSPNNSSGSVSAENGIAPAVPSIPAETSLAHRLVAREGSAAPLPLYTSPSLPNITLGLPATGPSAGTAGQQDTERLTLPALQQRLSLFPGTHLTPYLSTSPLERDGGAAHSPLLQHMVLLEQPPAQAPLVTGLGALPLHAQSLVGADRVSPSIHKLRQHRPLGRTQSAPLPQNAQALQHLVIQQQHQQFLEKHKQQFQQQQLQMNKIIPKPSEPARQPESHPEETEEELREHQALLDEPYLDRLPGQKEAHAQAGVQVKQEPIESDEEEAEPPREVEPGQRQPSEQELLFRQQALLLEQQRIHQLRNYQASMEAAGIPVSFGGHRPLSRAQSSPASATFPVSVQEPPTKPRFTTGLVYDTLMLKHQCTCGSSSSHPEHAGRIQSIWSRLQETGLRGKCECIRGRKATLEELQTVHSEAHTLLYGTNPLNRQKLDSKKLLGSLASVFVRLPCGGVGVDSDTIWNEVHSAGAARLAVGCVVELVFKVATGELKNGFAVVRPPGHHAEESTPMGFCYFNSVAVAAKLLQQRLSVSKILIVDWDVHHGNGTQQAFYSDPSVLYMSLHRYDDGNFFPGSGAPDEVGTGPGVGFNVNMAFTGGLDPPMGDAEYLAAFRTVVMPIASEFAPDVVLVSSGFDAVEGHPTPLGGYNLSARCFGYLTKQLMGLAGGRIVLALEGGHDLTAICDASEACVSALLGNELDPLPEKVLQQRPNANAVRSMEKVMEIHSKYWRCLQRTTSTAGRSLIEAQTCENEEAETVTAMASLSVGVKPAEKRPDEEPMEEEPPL
T1 sequence (Q13547 whole entry): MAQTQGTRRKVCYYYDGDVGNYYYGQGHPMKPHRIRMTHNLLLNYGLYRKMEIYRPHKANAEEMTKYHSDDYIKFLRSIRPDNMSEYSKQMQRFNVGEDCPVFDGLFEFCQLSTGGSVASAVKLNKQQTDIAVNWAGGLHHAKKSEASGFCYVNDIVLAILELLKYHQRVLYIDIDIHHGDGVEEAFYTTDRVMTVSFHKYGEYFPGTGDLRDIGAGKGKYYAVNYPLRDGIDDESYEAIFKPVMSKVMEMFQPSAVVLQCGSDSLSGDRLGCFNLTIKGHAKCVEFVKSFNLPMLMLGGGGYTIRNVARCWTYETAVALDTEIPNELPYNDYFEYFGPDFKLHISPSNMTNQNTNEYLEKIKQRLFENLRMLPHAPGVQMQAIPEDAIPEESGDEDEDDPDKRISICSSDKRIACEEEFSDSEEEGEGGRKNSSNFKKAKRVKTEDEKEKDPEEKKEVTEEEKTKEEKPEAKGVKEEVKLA
Chain of HDAC5 (Homo sapiens, UniProt Q9UQL6) (Q9UQL6 whole entry D593E): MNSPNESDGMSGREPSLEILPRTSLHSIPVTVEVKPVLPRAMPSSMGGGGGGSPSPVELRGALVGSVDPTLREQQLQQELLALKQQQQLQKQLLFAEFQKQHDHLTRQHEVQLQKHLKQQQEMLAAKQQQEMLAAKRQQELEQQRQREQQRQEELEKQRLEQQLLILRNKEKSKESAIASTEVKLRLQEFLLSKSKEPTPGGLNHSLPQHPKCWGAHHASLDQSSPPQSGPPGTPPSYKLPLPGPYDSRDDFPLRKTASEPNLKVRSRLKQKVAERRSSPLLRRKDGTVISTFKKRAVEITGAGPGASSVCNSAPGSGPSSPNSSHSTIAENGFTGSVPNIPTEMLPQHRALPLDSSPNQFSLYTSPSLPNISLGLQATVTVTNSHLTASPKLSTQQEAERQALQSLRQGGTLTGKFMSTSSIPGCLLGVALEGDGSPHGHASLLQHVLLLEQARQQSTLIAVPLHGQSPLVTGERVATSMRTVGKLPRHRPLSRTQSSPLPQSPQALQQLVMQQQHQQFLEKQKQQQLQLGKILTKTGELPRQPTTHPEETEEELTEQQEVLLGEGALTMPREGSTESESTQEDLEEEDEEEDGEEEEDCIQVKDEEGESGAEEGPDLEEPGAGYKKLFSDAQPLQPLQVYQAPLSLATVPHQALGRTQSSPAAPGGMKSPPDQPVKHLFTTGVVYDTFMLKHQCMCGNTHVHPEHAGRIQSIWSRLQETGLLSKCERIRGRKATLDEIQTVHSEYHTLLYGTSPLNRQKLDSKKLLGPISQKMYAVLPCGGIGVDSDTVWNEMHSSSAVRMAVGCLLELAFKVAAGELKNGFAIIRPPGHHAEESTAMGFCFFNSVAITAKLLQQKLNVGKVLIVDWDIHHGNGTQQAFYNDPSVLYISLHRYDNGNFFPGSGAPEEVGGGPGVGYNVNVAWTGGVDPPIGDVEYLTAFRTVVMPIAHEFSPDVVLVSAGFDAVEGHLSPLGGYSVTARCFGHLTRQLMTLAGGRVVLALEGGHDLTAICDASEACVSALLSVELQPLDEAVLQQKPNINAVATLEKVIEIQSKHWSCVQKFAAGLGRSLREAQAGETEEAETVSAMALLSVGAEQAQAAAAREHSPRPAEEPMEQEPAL

HDAC1 deacetylation activity in the presence of TSA [3]	HDAC6 deacetylation activity in the presence of TSA [4]	HDAC4 deacetylation activity in the presence of TSA [5]	HDAC5 deacetylation activity in the presence of TSA [6]	Structure (SMILES)	HDAC4 association with HDAC3 ([1]; Western blot)	HDAC4 association with importin α ([1]; Western blot)	binding of HDAC4 to either 14-3-3 isoform ([1]; Western blot)	HDAC activity of the purified HDAC4 complex [1]	HDAC5 association with HDAC3 [2]	binding of HDAC5 to either 14-3-3 isoform [2]	HDAC activity of the purified HDAC5 complex [2]
–	–	–	–	COC[C@@H]([C@H](O)[C@H](O)C(=O)NCC[C@H](C)c1nc(/C=C/C[C@@H]2O[C@]3(C[C@@H](O)[C@@H]2C)O[C@H]([C@H](C[C@H](O)[C@H](C)[C@H](O)[C@H](C)/C=C(C)/C(C)=C/C=C/C(C)=C\C#N)OC)[C@H](OP(=O)(O)O)C3(C)C)co1)N(C)C [calyculin A]	loss of interaction	fails to associate	increase	dramatic reduction	loss of interaction	increase	dramatic reduction
–	–	–	–	CN[C@@H]1C[C@H]2O[C@@](C)([C@@H]1OC)n1c3ccccc3c3c4c(c5c6ccccc6n2c5c31)C(=O)NC4 [staurosporine]	increase	–	decrease	increase	increase	decrease	increase
greatly reduced	greatly reduced	greatly reduced	greatly reduced	CC(/C=C/C(=O)NO)=C\[C@@H](C)C(=O)c1ccc(N(C)C)cc1 [TSA, trichostatin A]	–	–	–	–	–	–	–
